According to US10093623B2, “Cyclic amides as MetAP-2 inhibitors” (MERCK PATENT GmbH, priority 2012, dated 2018):

What follows are compounds tested against MetAP-2 (Homo sapiens, UniProt P50579) (assay: MetAP-2 activity measurement (coupled enzymatic reactions, Met-Arg-Ser substrate, dianisidine detection at 450 nm)). Settings: Inhibition of MetAP-2; read-out: IC50 enzyme.
Assay type: biochemical
Protocol: MetAP-2 Activity Measurement
The MetAP-2 activity is determined by coupling enzymatic reactions. The tripeptide Met-Arg-Ser (MAS) is employed as substrate. The methionine liberated is firstly converted into Metox and H2O2 by L-aminooxidase (AAO). In the second step, the peroxidase (POD) with the aid of the H2O2 catalyses the oxidation of the leukodye dianisidine to dianisidineox, the increase of which is detected photometrically at 450 nm.
MetAP-2 activity can be recorded continuously as kinetics. The reaction scheme illustrates that one mol of dianisidineox is formed per mol of methionene. The MetAP-2 enzyme activity can therefore be calculated directly as A absorption per time unit. Qualification of the MetAP-2 activity (mol of Met/time unit) is possible with the aid of the dianisidineox extinction coefficient.
The change in extinction per time unit is depicted graphically and a slope calculation is carried out in the visually linear region of the reaction.

Chain of MetAP-2 (P50579 whole entry, species assumed): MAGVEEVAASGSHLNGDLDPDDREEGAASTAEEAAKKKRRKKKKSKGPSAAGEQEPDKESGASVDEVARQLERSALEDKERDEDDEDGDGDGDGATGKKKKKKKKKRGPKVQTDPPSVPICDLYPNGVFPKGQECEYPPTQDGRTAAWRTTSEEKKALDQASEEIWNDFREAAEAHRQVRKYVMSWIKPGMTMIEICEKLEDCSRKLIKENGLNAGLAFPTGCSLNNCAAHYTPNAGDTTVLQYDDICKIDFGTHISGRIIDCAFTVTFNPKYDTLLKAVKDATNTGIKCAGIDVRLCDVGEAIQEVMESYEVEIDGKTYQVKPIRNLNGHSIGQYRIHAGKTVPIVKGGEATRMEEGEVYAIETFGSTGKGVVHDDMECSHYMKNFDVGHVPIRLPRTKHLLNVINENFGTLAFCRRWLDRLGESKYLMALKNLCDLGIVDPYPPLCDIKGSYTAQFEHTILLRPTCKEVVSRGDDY

Compared with `NC(=O)c1cc(C(N)=O)cc(N2CCC(O)(C(=O)NCc3cc(F)cc(Cl)c3)C2=O)c1` (stereo not drawn) [A130, 5-[3-(3-Chloro-5-fluorobenzylcarbamoyl)-3-hydroxy-2-oxopyrrolidin-1-yl]-isophthalamide], `CNC(=O)c1cccc(N2CCC(O)(C(=O)NCc3cc(F)cc(Cl)c3)C2=O)c1` (stereo not drawn) [A133, N-(3-Chloro-5-fluorobenzyl)-3-hydroxy-1-(3-methylcarbamoyl-phenyl)-2-oxopyrrolidine-3-carboxamide] is lower in IC50: 1000 to 10000 nM for the first, 10 to 1000 nM for the second.

First: O=C(NCc1cc(F)cc(Cl)c1)C1(O)CCN([C@@H]2CCNC2)C1=O (stereo partly drawn) [A131, N-(3-Chloro-5-fluorobenzyl)-(R)-3-hydroxy-2-oxo-[1,3′]bipyrrolidinyl-3-carboxamide]
Second: O=C(NCc1cc(F)cc(Cl)c1)C1(O)CCN([C@H]2CC[C@H](C(=O)O)CC2)C1=O (stereo partly drawn) [A152, 4-[3-(3-Chloro-5-fluorobenzyl-carbamoyl)-3-hydroxy-2-oxo-pyrrolidin-1-yl]-cyclohexanecarboxylic acid]
The IC50 of the first is higher: over 10000 nM for the first, 1000 to 10000 nM for the second.

`CN(C)C(=O)c1cccc(N2CCC(O)(C(=O)NCc3cc(F)cc(Cl)c3)C2=O)c1` (stereo not drawn) [A134, N-(3-Chloro-5-fluorobenzyl)-1-(3-Dimethylcarbamoylphenyl)-3-hydroxy-2-oxopyrrolidine-3-carboxamide] and `CNC(=O)c1cc2cc(N3CCC(O)(C(=O)NCc4cc(F)cc(Cl)c4)C3=O)ccc2o1` (stereo not drawn) [A146, N-(3-Chloro-5-fluorobenzyl)-3-hydroxy-1-(2-methylcarbamoyl-benzofuran-5-yl)-2-oxo-pyrrolidine-3-carboxamide] fall in the same range of IC50: 10 to 1000 nM for the first, 10 to 1000 nM for the second.

`COc1ccc(CN2CCC(O)(C(=O)NCc3cc(F)cc(Cl)c3)C2=O)cc1` (stereo not drawn) [A135, N-(3-Chloro-5-fluorobenzyl)-3-hydroxy-1-(4-methoxybenzyl)-2-oxopyrrolidine-3-carboxamide] and `O=C(NCc1cc(F)cc(Cl)c1)C1(O)CCN(Cc2ccccc2)C1=O` (stereo not drawn) [A136, N-(3-Chloro-5-fluorobenzyl)-1-benzyl-3-hydroxy-2-oxo-pyrrolidine-3-carboxamide] fall in the same range of IC50: 10 to 1000 nM for the first, 10 to 1000 nM for the second.

`O=C1CCc2cc(N3CCC(O)(C(=O)NCCc4cc(F)cc(Cl)c4)C3=O)ccc2N1` (stereo not drawn) [A137, N-[2-(3-Chloro-5-fluorophenyl)-ethyl]-3-hydroxy-2-oxo-1-(2-oxo-1,2,3,4-tetrahydroquinolin-6-yl)-pyrrolidine-3-carboxamide] and `O=C1CCc2cc(N3CC[C@](O)(C(=O)NCCc4cc(F)cc(Cl)c4)C3=O)ccc2N1` [A149, N-[2-(3-Chloro-5-fluorophenyl)-ethyl]-(S)-3-hydroxy-2-oxo-1-(2-oxo-1,2,3,4-tetrahydroquinolin-6-yl)pyrrolidine-3-carboxamide] fall in the same range of IC50: 10 to 1000 nM for the first, 10 to 1000 nM for the second.

`COc1ccc(N2CCC(O)(C(=O)NCc3cc(F)cc(Cl)c3)C2=O)cn1` (stereo not drawn) [A138, N-(3-Chloro-5-fluorobenzyl)-3-hydroxy-1-(6-methoxypyridin-3-yl)-2-oxopyrrolidine-3-carboxamide] and `CC(=O)Nc1ccc(N2CCC(O)(C(=O)NCCc3cc(F)cc(Cl)c3)C2=O)cn1` (stereo not drawn) [A139, N-[2-(3-Chloro-5-fluorophenyl)-ethyl]-1-(6-acetylaminopyridin-3-yl)-3-hydroxy-2-oxopyrrolidine-3-carboxamide] fall in the same range of IC50: 10 to 1000 nM for the first, 10 to 1000 nM for the second.

First: O=C(NCc1cc(F)cc(Cl)c1)[C@@]1(O)CCN(Cc2ccccc2)C1=O [A140, N-(3-Chloro-5-fluorobenzyl)-(S)-1-benzyl-3-hydroxy-2-oxo-pyrrolidine-3-carboxamide]
Second: O=C(NCc1cc(F)cc(Cl)c1)[C@]1(O)CCN(Cc2ccccc2)C1=O [A141, N-(3-Chloro-5-fluorobenzyl)-(R)-1-benzyl-3-hydroxy-2-oxo-pyrrolidine-3-carboxamide]
The IC50 of the first is lower: 10 to 1000 nM for the first, over 10000 nM for the second.

`Cc1cc(N2CCC(O)(C(=O)NCc3cc(F)cc(Cl)c3)C2=O)cnc1N1CCOCC1=O` (stereo not drawn) [A142, N-(3-Chloro-5-fluorobenzyl)-3-hydroxy-1-[5-methyl-6-(3-oxo-morpholin-4-yl)-pyridin-3-yl]-2-oxopyrrolidine-3-carboxamide] and `O=C1COc2cc(N3CCC(O)(C(=O)NCc4cc(F)cc(Cl)c4)C3=O)ccc2N1` (stereo not drawn) [A151, N-(3-Chloro-5-fluorobenzyl)-3-hydroxy-2-oxo-1-(3-oxo-3,4-dihydro-2H-benzo-1,4-oxazin-7-yl)pyrrolidine-3-carboxamide] fall in the same range of IC50: 10 to 1000 nM for the first, 10 to 1000 nM for the second.

`CC(=O)Nc1ccc(N2CCC(O)(C(=O)NCCc3ccccc3C(F)(F)F)C2=O)cn1` (stereo not drawn) [A143, N-[2-(2-Trifluoromethylphenyl)-ethyl]-1-(6-acetylaminopyridin-3-yl)-3-hydroxy-2-oxopyrrolidine-3-carboxamide] and `NC(=O)c1cccc(N2CCC(O)(C(=O)NCCc3ccccc3C(F)(F)F)C2=O)c1` (stereo not drawn) [A144, N-[2-(2-Trifluoromethylphenyl)-ethyl]-1-(3-carbamoylphenyl)-3-hydroxy-2-oxopyrrolidine-3-carboxamide] fall in the same range of IC50: 10 to 1000 nM for the first, 10 to 1000 nM for the second.

Compared with `CC(NC(=O)C1(O)CCN(c2ccccc2)C1=O)c1cccc(F)c1` (stereo not drawn) [A145, N-[1-(3-Fluorophenyl)ethyl]-3-hydroxy-2-oxo-1-phenyl-pyrrolidine-3-carboxamide], `O=C(NCc1cc(F)cc(Cl)c1)[C@@]1(O)CCN(c2ccc3cc[nH]c3c2)C1=O` [A153, N-(3-Chloro-5-fluorobenzyl)-(S)-3-hydroxy-1-(1H-indol-6-yl)-2-oxopyrrolidine-3-carboxamide] is lower in IC50: 1000 to 10000 nM for the first, 10 to 1000 nM for the second.

First: O=C(NCc1cc(F)cc(Cl)c1)C1(O)CCN(c2ccc3[nH]c(=O)ccc3c2)C1=O (stereo not drawn) [A147, N-(3-Chloro-5-fluorobenzyl)-3-hydroxy-2-oxo-1-(2-oxo-1,2-dihydroquinolin-6-yl)pyrrolidine-3-carboxamide]
Second: O=C(NCc1cc(F)cc(Cl)c1)[C@]1(O)CCN(c2ccc3cc[nH]c3c2)C1=O [A154, N-(3-Chloro-5-fluorobenzyl)-(R)-3-hydroxy-1-(1H-indol-6-yl)-2-oxopyrrolidine-3-carboxamide]
The IC50 of the first is lower: 10 to 1000 nM for the first, over 10000 nM for the second. The first is the more potent here.

`CCOC(=O)[C@H]1CC[C@H](N2CCC(O)(C(=O)NCc3cc(F)cc(Cl)c3)C2=O)CC1` (stereo partly drawn) [A148, Ethyl 4-[3-(3-chloro-5-fluorobenzylcarbamoyl)-3-hydroxy-2-oxopyrrolidin-1-yl]-cyclohexanecarboxylate] and `CNC(=O)[C@H]1CC[C@H](N2CCC(O)(C(=O)NCc3cc(F)cc(Cl)c3)C2=O)CC1` (stereo partly drawn) [A157, N-(3-Chloro-5-fluorobenzyl)-3-hydroxy-1-(4-methylcarbamoyl-cyclohexyl)-2-oxopyrrolidine-3-carboxamide] fall in the same range of IC50: 1000 to 10000 nM for the first, 1000 to 10000 nM for the second.

First: O=C1CCc2cc(N3CC[C@@](O)(C(=O)NCCc4cc(F)cc(Cl)c4)C3=O)ccc2N1 [A150, N-[2-(3-Chloro-5-fluorophenyl)-ethyl]-(R)-3-hydroxy-2-oxo-1-(2-oxo-1,2,3,4-tetrahydroquinolin-6-yl)pyrrolidine-3-carboxamide]
Second: CC(=O)Nc1ccc(N2CC[C@](O)(C(=O)NCCc3cc(F)cc(Cl)c3)C2=O)cn1 [A155, N-[2-(3-Chloro-5-fluorophenyl)-ethyl]-(S)-1-(6-acetylamino-pyridin-3-yl)-3-hydroxy-2-oxo-pyrrolidine-3-carboxamide]
The IC50 of the first is higher: over 10000 nM for the first, 10 to 1000 nM for the second.

`CC(=O)Nc1ccc(N2CC[C@@](O)(C(=O)NCCc3cc(F)cc(Cl)c3)C2=O)cn1` [A156, N-[2-(3-Chloro-5-fluorophenyl)-ethyl]-(R)-1-(6-acetylamino-pyridin-3-yl)-3-hydroxy-2-oxo-pyrrolidine-3-carboxamide] showed an IC50 of over 10000 nM.
